In publication PMC1948018 (Retrovirology, 2007):

Tests used:
HIV-1p256 [1] = assay: Long-term HIV-1 replication in MDMs (RT activity in supernatants); type: cell-based; settings: Human immunodeficiency virus 1, pooled data of independent donors; days 4, 8, 12, 16; read-out: average IC50 for inhibition of HIV-1 replication in MDMs
Method: (§1) Peripheral blood mononuclear cells (PBMCs) were isolated as previously described. Briefly, PBMCs were separated by centrifugation in lymphocyte separation medium (ICN Biomedicals, Solon, Ohio). The separated PBMCs were placed on gelatin and fibronectin-coated flasks in order to separate monocytes from mononuclear cells. […] PBLs were treated with 5 μg/ml of phytohaemagglutinin (PHA) for 72 hours prior to HIV infection and drug treatment. […] During long term studies in primary cells, supernatants were collected at 4, 8, 12 and 16 days post-infection, frozen at -80°C until analyzed and media was refreshed. […] Reverse transcriptase (RT) assays were performed on supernatants from HIV-1p256 infected cells as previously described. […] The mixture was incubated at 37°C for 3.5 hours and then blotted onto DE81 paper. The DE81 paper was washed 4 times with 3× SSPE and the amount of radioactivity that was incorporated into negative strand DNA was quantified with an InstantImager (Packard Instruments).

HIV-1p256 [2] = assay: microbe, parasite or virus in culture; type: cell-based; settings: Human immunodeficiency virus 1, HeLa37, 40 h, read-out: IC50 of inhibition of HIV in HeLa 37 cells
Method: Short-term, single hit infectivity studies were performed as previously described. HeLa37 cells were plated in a 48-well tray and triplicate wells were infected with a dual-tropic HIV-1p256 and serial dilutions of P-TEFb inhibitor for 40 hours. The cells were fixed with 75% acetone/25% H2O and immunostained for HIV-1 antigens using human anti-HIV serum (a gift from Dr. Jack Stapleton, Univ. of Iowa) and HRP-conjugated goat anti-human IgG followed by staining with 3-amino-9-ethylcarbazole (AEC). The HIV-1 antigen-positive cells were counted. Experiments were repeated at least three times with each drug concentration in triplicate.

[3] = tested on: monocyte derived macrophages (MDMs); assay: Cell viability (ATPLite) in MDMs; type: cell-based, human; settings: pooled data of independent donors; days 4, 8, 12, 16
Method: Human monocyte derived macrophages (MDMs) and peripheral blood lymphocytes (PBLs) cells were isolated from 350 ml of peripheral blood from healthy, HIV negative donors. Peripheral blood mononuclear cells (PBMCs) were isolated as previously described. Briefly, PBMCs were separated by centrifugation in lymphocyte separation medium (ICN Biomedicals, Solon, Ohio). The separated PBMCs were placed on gelatin and fibronectin-coated flasks in order to separate monocytes from mononuclear cells. Adherent monocytes were lifted with EDTA, washed and plated at a density of 1 × 10^6 per well in 48-well trays for infectivity and cytotoxicity studies. Monocytes were differentiated for 5 days in DMEM with 10% FCS, 10% human serum and 1% penicillin/streptomycin in order to generate monocyte-derived macrophages prior to HIV infections and drug treatment. PBLs were treated with 5 μg/ml of phytohaemagglutinin (PHA) for 72 hours prior to HIV infection and drug treatment. […] During long term studies in primary cells, supernatants were collected at 4, 8, 12 and 16 days post-infection, frozen at -80°C until analyzed and media was refreshed.
The impact of the P-TEFb inhibitors on cell viability was measured by ATPlite (Perkin Elmer). […] The amount of light produced in each well was measured in a TopCountR Microplate Scintillation and Luminescence Counter (Packard Instruments). […]

large form of P-TEFb [4] = molecular target: T1, large form of P-TEFb (Homo sapiens, UniProt P50750); assay: Differential salt extraction, loss of large form of P-TEFb in Jurkat cells; type: cell-based; settings: 1 hour treatment, increasing concentrations
T1 sequence (P50750 whole entry): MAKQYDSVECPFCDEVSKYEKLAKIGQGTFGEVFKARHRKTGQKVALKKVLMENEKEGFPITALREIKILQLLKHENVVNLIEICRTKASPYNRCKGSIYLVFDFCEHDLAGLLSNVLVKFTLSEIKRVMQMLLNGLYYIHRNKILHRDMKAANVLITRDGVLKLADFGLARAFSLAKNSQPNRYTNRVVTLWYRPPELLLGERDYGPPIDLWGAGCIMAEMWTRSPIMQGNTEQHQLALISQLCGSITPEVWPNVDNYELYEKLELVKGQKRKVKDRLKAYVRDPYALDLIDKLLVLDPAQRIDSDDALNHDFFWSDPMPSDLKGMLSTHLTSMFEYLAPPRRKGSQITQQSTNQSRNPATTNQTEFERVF
T1 sequence (O60563 whole entry, further chain): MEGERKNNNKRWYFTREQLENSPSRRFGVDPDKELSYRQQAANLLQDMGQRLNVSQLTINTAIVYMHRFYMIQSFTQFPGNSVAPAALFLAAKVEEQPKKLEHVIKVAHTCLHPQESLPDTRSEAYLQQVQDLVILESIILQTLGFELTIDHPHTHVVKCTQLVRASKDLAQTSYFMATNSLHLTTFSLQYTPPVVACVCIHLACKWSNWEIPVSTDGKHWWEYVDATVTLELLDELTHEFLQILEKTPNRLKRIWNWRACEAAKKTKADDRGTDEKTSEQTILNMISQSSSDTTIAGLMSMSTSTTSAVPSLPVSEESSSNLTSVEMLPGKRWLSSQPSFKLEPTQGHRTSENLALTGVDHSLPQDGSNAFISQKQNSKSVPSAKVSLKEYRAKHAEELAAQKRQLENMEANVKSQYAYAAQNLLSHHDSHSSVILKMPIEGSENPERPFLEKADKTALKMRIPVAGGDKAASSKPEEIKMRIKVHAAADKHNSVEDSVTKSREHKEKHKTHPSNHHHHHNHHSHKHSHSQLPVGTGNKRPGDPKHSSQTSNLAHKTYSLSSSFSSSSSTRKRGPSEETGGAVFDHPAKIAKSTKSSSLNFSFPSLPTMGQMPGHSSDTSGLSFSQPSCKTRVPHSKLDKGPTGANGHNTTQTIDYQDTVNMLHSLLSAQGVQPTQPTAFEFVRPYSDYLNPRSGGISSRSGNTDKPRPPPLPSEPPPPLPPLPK
Method: (§2) The cytosolic extracts were prepared by resuspending the cells in 80 μl of Buffer A (10 mM KCl, 10 mM MgCl2, 10 mM HEPES, 1 mM EDTA, 1 mM DTT, 0.1% PMSF and EDTA-free complete protease inhibitor cocktail (Roche)) with 0.5% NP-40 for 10 minutes on ice. The nuclei were spun down at 5,000 g for 5 minutes and the supernatant was saved as the cytosolic extract (CE). The nuclei were washed once with 200 μl of Buffer A with 0.5% NP-40 and re-pelleted. The nuclei were resuspended in 80 μl of Buffer B (450 mM NaCl, 1.5 mM MgCl2, 20 mM HEPES, 0.5 mM EDTA, 1 mM DTT, 0.1% PMSF and EDTA-free complete protease inhibitor cocktail (Roche)) and incubated on ice for 10 minutes. The lysates were clarified by centrifugation at 20,000 g for 10 minutes. The supernatant was saved as the nuclear extract (NE). Western blotting was performed with one fifth of the samples and the fraction of Cdk9 and cyclin T1 in the cytosolic and nuclear extracts was determined by imaging the chemiluminescent signal using a cooled CCD camera (UVP). The signal was quantitated using LabWorks 4.0 software and the data fit to a logistic dose response curve using TableCurve (Jandel Scientific) to determine the IC50 for loss of the large, low salt extractable form of P-TEFb.

HIV-1p256 [5] = assay: Long-term HIV-1 replication in PBLs (RT activity in supernatants); type: cell-based; settings: average of days 4, 8, 12, 16, read-out: average IC50 for inhibition of viral replication in PBLs
Method: as §1

HeLa37 cells = assay: Cell viability (ATPlite) in HeLa37 cells; type: cell-based; settings: performed in parallel to the 40 hour infectivity assay
Method: (§3) The impact of the P-TEFb inhibitors on cell viability was measured by ATPlite (Perkin Elmer). These cytotoxicity studies were performed as recommended by manufacturer utilizing a substrate solution that emits light in a manner proportional to the ATP present in each sample. Cells were plated in a 48-well format. Cells were treated with serial dilutions of the P-TEFb inhibitors and maintained for the indicated period of time. Mammalian cell lysis buffer was added to lyse the cells, followed by addition of the substrate solution. The amount of light produced in each well was measured in a TopCountR Microplate Scintillation and Luminescence Counter (Packard Instruments). Cytotoxicity experiments in HeLa37 cells were repeated at least three times with triplicates of each drug concentration.

[6] = tested on: peripheral blood lymphocytes (PBLs); assay: Cell viability (ATPLite) in PBLs; type: cell-based, human; settings: average of days 4, 8, 12, 16
Method: Human monocyte derived macrophages (MDMs) and peripheral blood lymphocytes (PBLs) cells were isolated from 350 ml of peripheral blood from healthy, HIV negative donors. Peripheral blood mononuclear cells (PBMCs) were isolated as previously described. Briefly, PBMCs were separated by centrifugation in lymphocyte separation medium (ICN Biomedicals, Solon, Ohio). The separated PBMCs were placed on gelatin and fibronectin-coated flasks in order to separate monocytes from mononuclear cells. Adherent monocytes were lifted with EDTA, washed and plated at a density of 1 × 10^6 per well in 48-well trays for infectivity and cytotoxicity studies. Monocytes were differentiated for 5 days in DMEM with 10% FCS, 10% human serum and 1% penicillin/streptomycin in order to generate monocyte-derived macrophages prior to HIV infections and drug treatment. PBLs were treated with 5 μg/ml of phytohaemagglutinin (PHA) for 72 hours prior to HIV infection and drug treatment. PHA-treated PBLs were plated at a density of 1 × 10^6 per well in 48-well trays and maintained in RPMI 1640 with 10% FCS, 1% Penicillin/Streptomycin and 10 units/ml of recombinant IL-2. Viral infection was performed in MDMs and PBLs by adding 10,000 RT units of HIV-1p256 stock per 1 × 10^6 cells. During long term studies in primary cells, supernatants were collected at 4, 8, 12 and 16 days post-infection, frozen at -80°C until analyzed and media was refreshed.
as §3, with “Cytotoxicity experiments in HeLa37 cells were repeated at least three times with triplicates of each drug concentration.” left out

[7] = molecular target: recombinant P-TEFb (Cdk9/cyclin T1) (Homo sapiens, UniProt P50750); set-up: method as in earlier work; settings: preparation of DRB tested earlier; Peng et al (1998) Genes and Dev. 12: 755–762; read-out: IC50 of kinase inhibition; cited from earlier work
Sequence of recombinant P-TEFb (Cdk9/cyclin T1) (P50750 whole entry): as the sequence (P50750 whole entry) above
Sequence of recombinant P-TEFb (Cdk9/cyclin T1) (O60563 whole entry partner): as the sequence (O60563 whole entry, further chain) above

large form of P-TEFb [8] = molecular target: T1, large form of P-TEFb; assay: Differential salt extraction, loss of large form of P-TEFb in HeLa cells; type: cell-based; settings: for IC50: 1 hour treatment
Method: as §2

large form of P-TEFb [9] = molecular target: T1, large form of P-TEFb; assay: Glycerol gradient analysis of large and free forms of P-TEFb in DRB-treated HeLa cells; type: cell-based
Method: HeLa cells were grown in 100 ml of DMEM with 10% FCS to a density of 4 × 10^5 cells/ml in spinner flasks. The cells were treated for 1 hour with no P-TEFb inhibitor or serial dilutions of DRB ranging from 0.1 to 10 μM. Cell lysates were prepared in Buffer A (10 mM KCl, 10 mM MgCl2, 10 mM HEPES, 1 mM EDTA, 1 mM DTT, 0.1% PMSF and EDTA-free complete protease inhibitor cocktail (Roche)) containing 150 mM NaCl and 0.5% NP-40. The lysates were clarified by centrifugation at 20,000 g for 10 minutes at 4°C. The supernatant was layered on top of a 5–45% glycerol gradient containing 150 mM NaCl. Gradients were spun at 190,000 g for 16 hours using a SW-55Ti rotor. The fractions were analyzed for the presence of P-TEFb complexes by immunoblotting with anti-cyclin T1 and anti-Cdk9 antibodies (Santa Cruz). Following incubation with the appropriate HRP-conjugated secondary antibodies, the blots were developed using SuperSignal DuraWest (Pierce). The western blots were imaged using a cooled CCD camera (UVP) and the amount of P-TEFb in the large and free form was quantitated using LabWorks 4.0 software.

HIV-1 = tested on: HIV-1; set-up: method as in PMID 11461999; settings: extensive 6 month study; cited from earlier work
[10] = Phase I trials, highest tested doses; cited from earlier work

## CN1CC[C@H](c2c(O)cc(O)c3c(=O)cc(-c4ccccc4Cl)oc23)[C@H](O)C1 [Flavopiridol]
HIV-1p256 [1]
  IC50: 61 nM
HIV-1p256 [2]
  IC50: 9.5 nM
[3]
  LD50 in MDMs: 99 nM
Large form of P-TEFb [4]
  effect on amount of the large form of P-TEFb: gradual reduction in the amount of the large form
HIV-1p256 [5]; Human immunodeficiency virus 1, donor #1
  IC50: 35 nM
HIV-1p256 [5]; Human immunodeficiency virus 1, donor #2
  IC50: 40 nM
HIV-1p256 [5]; Human immunodeficiency virus 1, donor #3
  IC50: 61 nM
HeLa37 cells
  Hela37 cell cytotoxicity (LD50): 0.225 µM
[6]; donor #1
  LD50 in PBLs: 143 nM
[6]; donor #2
  LD50 in PBLs: 81 nM
[6]; donor #3
  LD50 in PBLs: 123 nM

## OC[C@H]1O[C@@H](n2cnc3cc(Cl)c(Cl)cc32)[C@H](O)[C@@H]1O [DRB, 5,6-dichloro-1-beta-D-ribofuranosylbenzimidazole]
HIV-1p256 [2]
  IC50: 2600 nM
[7]
  IC50: 900 nM
Large form of P-TEFb [4]
  effect on amount of the large form of P-TEFb: gradual reduction of the large form
Large form of P-TEFb [8]; HeLa cells, 100 μM DRB, 1 hour, untreated approx. 50% in cytosolic extract
  P-TEFb subunits in cytosolic extracts prepared with low salt lysis buffer: not detected
Large form of P-TEFb [8]; read-out: IC50 for the release of free form of P-TEFb from the large form of the complex, HeLa37 cells, low salt extraction
  IC50: ~4500 nM
Large form of P-TEFb [8]; read-out: IC50 of loss of large form from HeLa cells: Cdk9, Cdk9 western blot
  IC50: 4200 ± 1600 nM
Large form of P-TEFb [8]; read-out: IC50 of loss of large form from HeLa cells: Cyclin T1, cyclin T1 western blot
  IC50: 5000 ± 3000 nM
HeLa37 cells
  Hela37 cell cytotoxicity (LD50): 20 µM
Large form of P-TEFb [9]; 10 μM DRB, 1 hour, without DRB approx. 60% of Cdk9 and 70% of cyclin T1
  P-TEFb subunits left in the large form of the complex: about 20%
Large form of P-TEFb [9]; HeLa cells, 1 hour treatment, Cdk9 and cyclin T1 immunoblot of glycerol gradient fractions, read-out: concentration causing a 50% reduction in large form within the cell
  IC50: ~3000 nM

## CC[C@H](CO)Nc1nc(NCc2ccccc2)c2ncn(C(C)C)c2n1 [roscovitine]
HIV-1
  generation of a resistant HIV-1 strain: unsuccessful

## CC[C@H](CO)Nc1nc(NCc2ccccc2)c2ncn(C(C)C)c2n1 [Seliciclib]
[10]
  side effects caused: fatigue and elevated creatinine
